Measured values as given in patent publication US12257264B2, “Combination therapy for HIV with adenosine derivative and capsid inhibitors” (Brii Biosciences, Inc., priority 2021, dated 2025).
Several values for one entry are separate records, joined by “and”; a condition that tells them apart may be missing. Equal values may be shown once.

Columns and labels:
[1] = Plasma stability and conversion to EFdA; details: for half-life at 2 µM: human, plasma, pH 7.4
Procedure: The pooled frozen plasma was thawed in a water bath at 37° C. prior to experiment. Plasma was centrifuged at 4000 rpm for 5 min and the clots were removed if any. The pH will be adjusted to 7.4±0.1 if required.
Preparation of test compounds and positive control (propantheline bromide): 1 mM intermediate solution was prepared by diluting 10 μL of the stock solution with 90 μL MeOH; 1 mM intermediate of positive control Propantheline was prepared by diluting 10 μL of the stock solution with 90 μL ultrapure water. 100 μM dosing solution was prepared by diluting 20 μL of the intermediate solution (1 mM) with 180 μL MeOH. 98 μL of blank plasma was spiked with 2 μL of dosing solution (100 μM) to achieve 2 μM of the final concentration in duplicate and samples were incubated at 37° C. in a water bath. At each time point (0, 10, 30, 60 and 120 min), […] of stop solution (0.1% FA in MeOH containing 200 ng/mL tolbutamide and 200 ng/mL Labetalol) was added to precipitate protein and mixed thoroughly. Centrifuged sample plates at 4,000 rpm for 10 min. An aliquot of supernatant (100 μL) was transferred from each well to another plates.
Data analysis: The % remaining of test compound after incubation in plasma was calculated using following equation: % Remaining=100×(PAR at appointed incubation time/PAR at T0 time) where PAR is the peak area ratio of analyte versus internal standard (IS) (LC/MS/MS mobile phase condition: 0.1% Formic Acid in Water/0.1% Formic Acid in Acetonitrile. The appointed incubation time points are TO (0 min), Tn (n=0, 10, 30, 60, 120 min). Liver S9 Stability

[2] = Liver S9 stability and conversion to EFdA; type: in vitro ADME, human; details: for half-life at 1 µM: human liver S9, 37° C.
Procedure: Intermediate solution: Dilute 5 μL of compounds or controls (7-ethoxycoumarin) from stock solution (10 mM) with 495 μL MeOH (Conc.: 100 μM, 1% DMSO, 99% MeOH). Stop solution: Cold ACN (including 100 ng/mL Tolbutamide and Labetalol as internal standard). Add 2 μL test compound or control working solution/well to all plates (T0, T5, T10, T20, T30, T60, NCF60) except matrix blank. Add 600 μL/well stop solution (cold in 4° C., including 100 ng/mL Tolbutamide/100 ng/mL Labetalol) to terminate the TO plate, then put it on ice. Dispense 840 μL/well S9 solution to 96-well plate as reservoir according to plate map. Then add 100 μL/well to every plate by Apricot. Incubate S9 solution and compound at 37° C. for about 10 min except NCF60 and TO. After adding S9 solution and 98 μLPB buffer to NCF60, incubate at 37° C. without pre-warming, start timer 1. After 60 min, add 600 μL/well stop solution to terminate the reaction. After pre-warming, dispense 760 μL/well cofactor solution to 96-well plate as reservoir according to plate map. Then add 98 μL/well to every plate by Apricot to start reaction. Incubate at 37° C., start timer 2, Add 600 μL/well stop solution (cold in 4° C., including 100 ng/mL Tolbutamide and Labetalol) to terminate the reaction. Samples are centrifuged at 4000 rpm for 20 min. While centrifuging, load 8×new 96-well plate with 300 μL HPLC water, then transfer 100 μL supernatant, mix with water for LC/MS/MS, transferred to Bioanalytical Services for LC-MS/MS analysis. Use equation of first order kinetics to calculate t1/2 and CL: Equation of first order kinetics: […]

[3] = Plasma exposures following oral administration to beagle dogs; details: EFdA PO 5 mg/kg

Structure (SMILES)	Stability in Human Plasma Formation of EFdA [1]	half-life at 2 µM [1] [min]	Stability in Human Liver S9 Formation of EFdA [2]	half-life at 1 µM [2] [min]	other results
C#C[C@]1(CO)O[C@@H](n2cnc3c(NCc4oc(=O)oc4C)nc(F)nc32)C[C@@H]1O [Formula 6-A, 4-(((9-((2R,4S,5R)-5-ethynyl-4-hydroxy-5-(hydroxymethyl)tetrahydrofuran-2-yl)-2-fluoro-9H-purin-6-yl)amino)methyl)-5-methyl-1,3-dioxol-2-one]	No	< 50	Yes	< 50	Conversion to the target drug (EFdA) in liver S9 assay [2]: converted to the target drug efficiently
C#C[C@]1(COC(=O)OCc2oc(=O)oc2C)O[C@@H](n2cnc3c(N)nc(F)nc32)C[C@@H]1OC(=O)OCc1oc(=O)oc1C [Formula 4-C, ((2R,3S,5R)-5-(6-amino-2-fluoro-9H-purin-9-yl)-2-ethynyl-3-((((5-methyl-2-oxo-1,3-dioxol-4-yl)methoxy)carbonyl)oxy)tetrahydrofuran-2-yl)methyl ((5-methyl-2-oxo-1,3-dioxol-4-yl)methyl) carbonate]	Yes	< 50	Yes	< 50	Conversion to the target drug (EFdA) in human plasma assay [1]: converted to the target drug efficiently; Conversion to the target drug (EFdA) in liver S9 assay [2]: converted to the target drug efficiently
C#C[C@]1(COC(=O)NC)O[C@@H](n2cnc3c(N)nc(F)nc32)C[C@@H]1O [Formula 5-A, ((2R,3S,5R)-5-(6-amino-2-fluoro-9H-purin-9-yl)-2-ethynyl-3-hydroxytetrahydrofuran-2-yl)methyl methylcarbamate]	No	> 200	No	50 to 200	–
C#C[C@]1(CO)O[C@@H](n2cnc3c(NC(=O)OC(C)C)nc(F)nc32)C[C@@H]1O [Formula 3-A, isopropyl (9-((2R,4S,5R)-5-ethynyl-4-hydroxy-5-(hydroxymethyl)tetrahydrofuran-2-yl)-2-fluoro-9H-purin-6-yl)carbamate]	No	> 200	No	50 to 200	–
C#C[C@]1(COC(=O)NC(C)C)O[C@@H](n2cnc3c(N)nc(F)nc32)C[C@@H]1O [Formula 2-A, ((2R,3S,5R)-5-(6-amino-2-fluoro-9H-purin-9-yl)-2-ethynyl-3-hydroxytetrahydrofuran-2-yl)methyl isopropylcarbamate]	No	> 200	No	50 to 200	–
C#C[C@]1(COC(=O)NCCN(C)Cc2oc(=O)oc2C)O[C@@H](n2cnc3c(N)nc(F)nc32)C[C@@H]1O [Formula 7-A, ((2R,3S,5R)-5-(6-amino-2-fluoro-9H-purin-9-yl)-2-ethynyl-3-hydroxytetrahydrofuran-2-yl)methyl (2-(methyl((5-methyl-2-oxo-1,3-dioxol-4-yl)methyl)amino)ethyl)carbamate]	No	50 to 200	No	< 50	–
C#C[C@]1(CO)O[C@@H](n2cnc3c(N)nc(F)nc32)C[C@@H]1O [Formula T-1A, (2R,3S,5R)-5-(6-amino-2-fluoro-9H-purin-9-yl)-2-ethynyl-2-(hydroxymethyl)tetrahydrofuran-3-ol, reference compound]	–	–	–	–	EFdA Concentrations in Dog Plasma ([3]; 0.250 hrs, individual animals, 5 mg/kg): 333 ng/mL and 276 ng/mL; EFdA Concentrations in Dog Plasma ([3]; 0.500 hrs, individual animals, 5 mg/kg): 299 ng/mL and 280 ng/mL; EFdA Concentrations in Dog Plasma ([3]; 1.00 hrs, individual animals, 5 mg/kg): 353 ng/mL and 361 ng/mL; EFdA Concentrations in Dog Plasma ([3]; 2.00 hrs, individual animals, 5 mg/kg): 212 ng/mL and 143 ng/mL; EFdA Concentrations in Dog Plasma ([3]; 4.00 hrs, individual animals, 5 mg/kg): 12.6 ng/mL and 17.9 ng/mL and 6.30 ng/mL; EFdA Concentrations in Dog Plasma ([3]; 6.00 hrs, individual animals): BQL; EFdA Concentrations in Dog Plasma ([3]; 8.00 hrs, individual animals): BQL; EFdA Concentrations in Dog Plasma ([3]; 12.0 hrs, individual animals): BQL; EFdA Concentrations in Dog Plasma ([3]; 24.0 hrs, individual animals): BQL; concentration at 0.25 h ([3]; male, beagle, dog, in vivo, po, 5 mg/kg, EFdA Concentrations in Dog Plasma, 0.250 hrs, Mean): 355 ng/mL; concentration at 0.25 h ([3]; male, beagle, dog, in vivo, po, 5 mg/kg, EFdA Concentrations in Dog Plasma, 0.250 hrs, individual animals): 456 ng/mL; concentration at 0.5 h ([3]; male, beagle, dog, in vivo, po, 5 mg/kg, EFdA Concentrations in Dog Plasma, 0.500 hrs, Mean): 323 ng/mL; concentration at 0.5 h ([3]; male, beagle, dog, in vivo, po, 5 mg/kg, EFdA Concentrations in Dog Plasma, 0.500 hrs, individual animals): 391 ng/mL; concentration at 1 h ([3]; male, beagle, dog, in vivo, po, 5 mg/kg, EFdA Concentrations in Dog Plasma, 1.00 hrs, Mean): 361 ng/mL; concentration at 1 h ([3]; male, beagle, dog, in vivo, po, 5 mg/kg, EFdA Concentrations in Dog Plasma, 1.00 hrs, individual animals): 369 ng/mL; concentration at 2 h ([3]; male, beagle, dog, in vivo, po, 5 mg/kg, EFdA Concentrations in Dog Plasma, 2.00 hrs, Mean): 189 ng/mL; concentration at 2 h ([3]; male, beagle, dog, in vivo, po, 5 mg/kg, EFdA Concentrations in Dog Plasma, 2.00 hrs, individual animals): 211 ng/mL; concentration at 4 h ([3]; male, beagle, dog, in vivo, po, 5 mg/kg, EFdA Concentrations in Dog Plasma, 4.00 hrs, Mean): 12.3 ng/mL
